Assay results from article PMC2703631, “Identification of non-muscle myosin heavy chain as a substrate for Cdk5 and tool for drug screening” (Journal of Biomedical Science, 2009).

How the values were obtained:
[1] = test system: Cdk5/p25 transfected HEK293 cells; test: NMHC-B (pSerCdk substrate) phosphorylation by Western blot in Cdk5/p25 transfected HEK293 cells; assay type: cell-based, human; settings: for IC50: Homo sapiens, 4 hours treatment, Western blot, read-out: IC50, inhibition of pSerCdk substrate (NMHC-B) phosphorylation
Method: (§1) The inhibition curves were analysed by non-linear regression using Graph Pad Prism.

[2] = Solubility (remark in discussion); assay type: physicochemical; settings: stated as likely cause of precipitation at higher concentrations
[3] = target: recombinant human Cdk5/p25 (Homo sapiens, UniProt Q00535); test: Scintillation Proximity Assay (SPA), peptide substrate phosphorylation; assay type: biochemical; settings: recombinant human Cdk5/p25 3.3 nM, 2 μM ATP, biotinylated peptide substrate; read-out: IC50, inhibition of peptide substrate phosphorylation in SPA assay
Chain of recombinant human Cdk5/p25 (Q00535 whole entry): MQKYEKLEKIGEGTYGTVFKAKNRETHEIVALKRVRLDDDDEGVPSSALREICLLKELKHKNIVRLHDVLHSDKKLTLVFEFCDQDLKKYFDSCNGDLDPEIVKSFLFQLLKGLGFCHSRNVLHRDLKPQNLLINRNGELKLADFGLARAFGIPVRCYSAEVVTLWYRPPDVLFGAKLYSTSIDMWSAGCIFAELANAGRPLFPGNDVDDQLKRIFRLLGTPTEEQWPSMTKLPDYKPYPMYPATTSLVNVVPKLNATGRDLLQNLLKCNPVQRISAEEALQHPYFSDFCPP
Chain of recombinant human Cdk5/p25 (Q15078 99-307 partner limits assumed): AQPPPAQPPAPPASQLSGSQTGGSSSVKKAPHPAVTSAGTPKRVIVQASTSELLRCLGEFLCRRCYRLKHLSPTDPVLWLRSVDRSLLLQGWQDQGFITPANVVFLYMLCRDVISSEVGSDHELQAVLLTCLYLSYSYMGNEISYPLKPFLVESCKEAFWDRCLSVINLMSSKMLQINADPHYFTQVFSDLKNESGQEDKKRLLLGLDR
Method: as §1
This biochemical assay measures inhibition of the recombinant human Cdk5/p25 protein kinase by different compounds with a synthetic peptide as a substrate.

[4] = test system: human neuroblastoma SH-SY5Y cells; test: pSerCdk substrate (NMHC-B) phosphorylation by Western blot in SH-SY5Y cells; assay type: cell-based; settings: undifferentiated and RA-differentiated SH-SY5Y cells, 10 μM, 4 hours
Method: SH-SY5Y cells were grown in medium with equal amount of Minimum Essential Medium (MEM, InVitrogen, Sweden) and Nutrient Mixture Ham's F-12 (InVitrogen, Sweden), supplemented with 1% non-essential amino acids and with heat-inactivated FCS. Cells were plated at a density of 4.0 × 10^4 cells/cm^2 in 6-well culture dishes using cell medium with 10% FCS. For differentiation, the cells were treated 6 days with 10 μM all-trans-retinoic acid (RA, Sigma, Sweden) in the medium containing 1% FCS. In some experiments the cells were left undifferentiated and these cells were cultured in medium containing 10% FCS. […]
HEK293 cells were lysed in buffer containing 10 mM Tris-HCl pH 7.2, 150 mM NaCl, 2 mM EDTA, 50 mM NaF, 1 mM Na3O4V, 0.5% NP-40 and 1 complete protease inhibitor cocktail tablet (Roche Diagnostics Scandinavia AB, Sweden)/10 ml buffer. […] The protein content in the supernatants was measured using BCA Protein Assay kit (Pierce Biotechnology, Rockford, IL, USA). […] Average density of the bands was measured in Fluor-S™MultiImager (Bio-Rad Laboratories AB, Sweden) by using Quantity One software. The inhibition curves were analysed by non-linear regression using Graph Pad Prism.
We also investigated NMHC-B phosphorylation by Cdk5 in human neuroblastoma SH-SY5Y cells. […] Verification that the 200 kDa pSerCdk band detected in SH-SY5Y cells was in fact NMHC-B was done by immunoprecipitation.

solubility [2] | IC50 [3] [nM] | Structure (SMILES) | inhibition of pSerCdk substrate phosphorylation ([1]; data not shown) | IC50 [1] [nM] | phosphorylation of 200 kDa pSerCdk substrate band [4]
 |  | Cc1c(C(=O)c2ccc(Cl)cc2)cc(C(C)(C)C)c(O)c1C(=O)O [5-(4-chlorobenzoyl)-2-hydroxy-6-methyl-3-tert-butyl-benzoic acid] | did not show inhibition |  | 
poor solubility | 355 | NS(=O)(=O)c1cc(-c2nc3ccc(Cl)cc3s2)cs1 [AZ compound, 4-(6-chlorobenzothiazol-2-yl)thiophene-2-sulfonamide] |  | 4360 | 
 | 45 | CCn1c(=O)ccc2cnc(Nc3ccc(F)cc3)nc21 [WL compound, 7-ethyl-4-[(4-fluorophenyl)amino]-3,5,7-triaza bicyclo [4.4.0.] deca-1,3,5,9-tetraen-8-one] |  | 2550 | 
 |  | CC[C@H](CO)Nc1nc(NCc2ccccc2)c2ncn(C(C)C)c2n1 [Roscovitine] |  |  | completely inhibited
